{
  "source": "paper PMC10518257",
  "about": "(Nature Cancer, 2023)",
  "key": {"[1]": {"assay": "Animal weight of tumor-bearing mice", "conditions": "for Animal Weight (g), Mean: Ba/F3-KIF5B::RET tumor-bearing mice (Ext. Data Fig 8h); for Animal Weight: individual animals"}, "[2]": {"system": "Ba/F3-CCDC6::RET", "assay": "Growth inhibition assay in Ba/F3 cells (CellTiter-Glo, 72 h)", "type": "cell-based"}, "[3]": {"system": "LUAD-0086AS3 cells", "assay": "Growth inhibition (alamarBlue, 96 h)", "type": "cell-based, human", "conditions": "for raw viability signal (Source Data Fig. 3b-c): LUAD-0086AS3 (n=1, 3 replicates)"}},
  "note": "“And” between values parts separate entries of the source, which are not always exact repeats. Equal entries are not always repeated. Where two headings read alike, the source gives them in different places.",
  "data": [
    {"molecule": "COc1ccc(CN2C3CC2CN(c2ccc(-c4cc(OCC(C)(C)O)cn5ncc(C#N)c45)cn2)C3)cn1", "note": "[Selpercatinib]", "values": [
      {"measurement": "Animal Weight, Mean", "setting": "[1]; Ba/F3-KIF5B::RET G810R (Fig 8f), Selpercatinib 10 mg/kg BID, day 15", "value": 26.48, "unit": "g"},
      {"measurement": "Animal Weight, Mean", "setting": "[1]; Ba/F3-KIF5B::RET G810R (Fig 8g), Selpercatinib 30 mg/kg BID, day 1", "value": 25.8, "unit": "g"},
      {"measurement": "Animal Weight, Mean", "setting": "[1]; Ba/F3-KIF5B::RET G810R (Fig 8g), Selpercatinib 30 mg/kg BID, day 4", "value": 26.9, "unit": "g"},
      {"measurement": "Animal Weight, Mean", "setting": "[1]; Ba/F3-KIF5B::RET G810R (Fig 8g), Selpercatinib 30 mg/kg BID, day 8", "value": 27.0, "unit": "g"},
      {"measurement": "Animal Weight, Mean", "setting": "[1]; Ba/F3-KIF5B::RET G810R (Fig 8g), Selpercatinib 30 mg/kg BID, day 11", "value": 26.8, "unit": "g"},
      {"measurement": "Animal Weight, Mean", "setting": "[1]; Ba/F3-KIF5B::RET G810R (Fig 8g), Selpercatinib 30 mg/kg BID, day 15", "value": 26.8, "unit": "g"},
      {"measurement": "Animal Weight (g), Mean", "setting": "[1]; 3 mg/kg BID, day 1", "value": 28.0, "unit": "g"},
      {"measurement": "Animal Weight (g), Mean", "setting": "[1]; 3 mg/kg BID, day 4", "value": 28.1, "unit": "g"},
      {"measurement": "Animal Weight (g), Mean", "setting": "[1]; 3 mg/kg BID, day 8", "value": 28.6, "unit": "g"},
      {"measurement": "Animal Weight (g), Mean", "setting": "[1]; 3 mg/kg BID, day 11", "value": 28.6, "unit": "g"},
      {"measurement": "Animal Weight (g), Mean", "setting": "[1]; 3 mg/kg BID, day 15", "value": 28.4, "unit": "g"},
      {"measurement": "Animal Weight (g), Mean", "setting": "[1]; 10 mg/kg BID, day 1", "value": 27.7, "unit": "g"},
      {"measurement": "Animal Weight (g), Mean", "setting": "[1]; 10 mg/kg BID, day 4", "value": 27.7, "unit": "g"},
      {"measurement": "Animal Weight (g), Mean", "setting": "[1]; 10 mg/kg BID, day 8", "value": 28.2, "unit": "g"},
      {"measurement": "Animal Weight (g), Mean", "setting": "[1]; 10 mg/kg BID, day 11", "value": 28.7, "unit": "g"},
      {"measurement": "Animal Weight (g), Mean", "setting": "[1]; 10 mg/kg BID, day 15", "value": 28.6, "unit": "g"},
      {"measurement": "Animal Weight (g), Mean", "setting": "[1]; 30 mg/kg BID, day 1", "value": 28.1, "unit": "g"},
      {"measurement": "Animal Weight (g), Mean", "setting": "[1]; 30 mg/kg BID, day 4", "value": 27.9, "unit": "g"},
      {"measurement": "Animal Weight (g), Mean", "setting": "[1]; 30 mg/kg BID, day 8", "value": 29.0, "unit": "g"},
      {"measurement": "Animal Weight (g), Mean", "setting": "[1]; 30 mg/kg BID, day 11", "value": 29.6, "unit": "g"},
      {"measurement": "Animal Weight (g), Mean", "setting": "[1]; 30 mg/kg BID, day 15", "value": 29.2, "unit": "g"},
      {"measurement": "Animal Weight (g), Mean", "setting": "[1]; 100 mg/kg BID, day 1", "value": 26.8, "unit": "g"},
      {"measurement": "Animal Weight (g), Mean", "setting": "[1]; 100 mg/kg BID, day 4", "value": 26.1, "unit": "g"},
      {"measurement": "Animal Weight (g), Mean", "setting": "[1]; 100 mg/kg BID, day 8", "value": 23.3, "unit": "g"},
      {"measurement": "Animal Weight", "setting": "[1]; LUAD-0077AS1 PDX, Selpercatinib 10 mg/kg BID, treatment day 0", "value": "24 g and 25 g and 21 g and 23 g (2×)"},
      {"measurement": "Animal Weight", "setting": "[1]; LUAD-0077AS1 PDX, Selpercatinib 10 mg/kg BID, treatment day 4", "value": "24 g (3×) and 21 g and 23 g"},
      {"measurement": "Animal Weight", "setting": "[1]; LUAD-0077AS1 PDX, Selpercatinib 10 mg/kg BID, treatment day 7", "value": "23 g (3×) and 21 g and 24 g"},
      {"measurement": "Animal Weight", "setting": "[1]; LUAD-0077AS1 PDX, Selpercatinib 10 mg/kg BID, treatment day 11", "value": "24 g (2×) and 23 g (2×) and 21 g"},
      {"measurement": "Animal Weight", "setting": "[1]; LUAD-0077AS1 PDX, Selpercatinib 10 mg/kg BID, treatment day 14", "value": "23 g and 24 g (2×) and 21 g and 25 g"},
      {"measurement": "Animal Weight", "setting": "[1]; LUAD-0077AS1 PDX, Selpercatinib 10 mg/kg BID, treatment day 19", "value": "25 g and 23 g and 22 g and 26 g and 24 g"},
      {"measurement": "Animal Weight", "setting": "[1]; LUAD-0087AS2 PDX, Selpercatinib 30 mg/kg BID, treatment day 0", "value": "27 g (4×) and 28 g"},
      {"measurement": "Animal Weight", "setting": "[1]; LUAD-0087AS2 PDX, Selpercatinib 30 mg/kg BID, treatment day 3", "value": "26 g (3×) and 28 g and 27 g"},
      {"measurement": "Animal Weight", "setting": "[1]; LUAD-0087AS2 PDX, Selpercatinib 30 mg/kg BID, treatment day 7", "value": "27 g (3×) and 26 g and 28 g"},
      {"measurement": "Animal Weight", "setting": "[1]; LUAD-0087AS2 PDX, Selpercatinib 30 mg/kg BID, treatment day 10", "value": "27 g (3×) and 26 g (2×)"},
      {"measurement": "Animal Weight", "setting": "[1]; LUAD-0087AS2 PDX, Selpercatinib 30 mg/kg BID, treatment day 14", "value": "26 g (3×) and 27 g (2×)"},
      {"measurement": "Animal Weight", "setting": "[1]; LUAD-0087AS2 PDX, Selpercatinib 30 mg/kg BID, treatment day 17", "value": "27 g (4×) and 26 g"},
      {"measurement": "Animal Weight", "setting": "[1]; LUAD-0087AS2 PDX, Selpercatinib 30 mg/kg BID, treatment day 21", "value": "28 g and 27 g (2×) and 26 g and 25 g"},
      {"measurement": "Animal Weight", "setting": "[1]; LUAD-0087AS2 PDX, Selpercatinib 30 mg/kg BID, treatment day 24", "value": "28 g (2×) and 27 g (2×) and 26 g"},
      {"measurement": "Animal Weight", "setting": "[1]; LUAD-0087AS2 PDX, Selpercatinib 30 mg/kg BID, treatment day 29", "value": "26 g (2×) and 27 g and 28 g (2×)"},
      {"measurement": "Animal Weight", "setting": "[1]; LUAD-0087AS2 PDX, Selpercatinib 30 mg/kg BID, treatment day 32", "value": "26 g (2×) and 28 g (3×)"},
      {"measurement": "Animal Weight", "setting": "[1]; LUAD-0087AS2 PDX, Selpercatinib 30 mg/kg BID, treatment day 35", "value": "26 g (2×) and 28 g and 27 g (2×)"},
      {"measurement": "Animal Weight", "setting": "[1]; LUAD-0087AS2 PDX, Selpercatinib 30 mg/kg BID, treatment day 38", "value": "23 g (2×) and 28 g and 29 g and 26 g"},
      {"measurement": "Animal Weight", "setting": "[1]; LUAD-0087AS2 PDX, Selpercatinib 30 mg/kg BID, treatment day 42", "value": "27 g (4×) and 26 g"},
      {"measurement": "Animal Weight", "setting": "[1]; LUAD-0087AS2 PDX, Selpercatinib 30 mg/kg BID, treatment day 45", "value": "28 g (3×) and 27 g (2×)"},
      {"measurement": "GI50", "setting": "[2]; BaF3/CCDC6-RET, 72 h, read-out: GI50 value (Mean ± SD), Ba/F3-CCDC6::RET, CellTiter-Glo, 72 h", "value": "21.4 ± 7.5", "unit": "nM"},
      {"measurement": "GI50", "setting": "[2]; read-out: GI50 values, Ba/F3-CCDC6::RET, individual sets (replicate experiments)", "value": "13 nM and 27.4 nM"},
      {"measurement": "IC50", "setting": "[3]; Homo sapiens, 96 h, read-out: IC50 for Inhibition of Growth (95% CI)", "value": 84, "unit": "nM"},
      {"measurement": "raw viability signal (Source Data Fig. 3b-c)", "setting": "[3]; 0.01 nM", "value": "32605.6 and 32345.5 and 24840.6"},
      {"measurement": "raw viability signal (Source Data Fig. 3b-c)", "setting": "[3]; 0.1 nM", "value": "24088.4 and 24382.4 and 28533.2"},
      {"measurement": "raw viability signal (Source Data Fig. 3b-c)", "setting": "[3]; 1 nM", "value": "21980.7 and 23036.6 and 27631.4"},
      {"measurement": "raw viability signal (Source Data Fig. 3b-c)", "setting": "[3]; 10 nM", "value": "22728.2 and 21261.8 and 26828.6"},
      {"measurement": "raw viability signal (Source Data Fig. 3b-c)", "setting": "[3]; 100 nM", "value": "13108.2 and 14842.7 and 15753"},
      {"measurement": "raw viability signal (Source Data Fig. 3b-c)", "setting": "[3]; 1000 nM", "value": "5050.52 and 4540.04 and 5107.48"},
      {"measurement": "raw viability signal (Source Data Fig. 3b-c)", "setting": "[3]; 10000 nM", "value": "1139.12 and 1223.75 and 1244.48"}
    ]}
  ]
}
